One may read the EC50 as the concentration that produces a half-maximal response.

In this experiment the target is T1, F508delCFTR (Homo sapiens, UniProt P13569, DEL508-508).
T1 construct: expressed in transfected cells; host or cells: CFBE41o- human lung-derived epithelial cells (CFBE4lo-F508delCFTR-HRP), doxycycline-inducible
Briefly: Cell Surface Expression-Horse Radish Peroxidase (CSE-HRP) Assay.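 For Maximum % activity (with co-corrector): co-corrector and positive control are both the same reference corrector at 2 µM.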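 For Maximum % activity (without co-corrector): percent of the 2 µM on-plate positive control corrector response above DMSO.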 The class given is cell-based. Particulars: for Maximum % activity (with co-corrector): with co-corrector (2 μM); for Maximum % activity (with co-corrector) / Emax: maximum at any tested concentration, normalized to on-plate positive control; for Emax: without co-corrector, read-out: Maximum % activity (without co-corrector).

Setting [1] is: test compound without co-corrector, read-out: EC50 (without co-corrector).
[2] abbreviates: with co-corrector (2 μM of 3-[(2R,4R)-4-({[1-(2,2-difluoro-1,3-benzodioxol-5-yl)cyclopropyl]carbonyl}amino)-7-methoxy-3,4-dihydro-2H-chromen-2-yl]benzoic acid), read-out: EC50 (with co-corrector).

Where two headings read alike, the source gives them in different places.

T1 sequence (P13569 with tags, fused parts or gaps DEL508-508): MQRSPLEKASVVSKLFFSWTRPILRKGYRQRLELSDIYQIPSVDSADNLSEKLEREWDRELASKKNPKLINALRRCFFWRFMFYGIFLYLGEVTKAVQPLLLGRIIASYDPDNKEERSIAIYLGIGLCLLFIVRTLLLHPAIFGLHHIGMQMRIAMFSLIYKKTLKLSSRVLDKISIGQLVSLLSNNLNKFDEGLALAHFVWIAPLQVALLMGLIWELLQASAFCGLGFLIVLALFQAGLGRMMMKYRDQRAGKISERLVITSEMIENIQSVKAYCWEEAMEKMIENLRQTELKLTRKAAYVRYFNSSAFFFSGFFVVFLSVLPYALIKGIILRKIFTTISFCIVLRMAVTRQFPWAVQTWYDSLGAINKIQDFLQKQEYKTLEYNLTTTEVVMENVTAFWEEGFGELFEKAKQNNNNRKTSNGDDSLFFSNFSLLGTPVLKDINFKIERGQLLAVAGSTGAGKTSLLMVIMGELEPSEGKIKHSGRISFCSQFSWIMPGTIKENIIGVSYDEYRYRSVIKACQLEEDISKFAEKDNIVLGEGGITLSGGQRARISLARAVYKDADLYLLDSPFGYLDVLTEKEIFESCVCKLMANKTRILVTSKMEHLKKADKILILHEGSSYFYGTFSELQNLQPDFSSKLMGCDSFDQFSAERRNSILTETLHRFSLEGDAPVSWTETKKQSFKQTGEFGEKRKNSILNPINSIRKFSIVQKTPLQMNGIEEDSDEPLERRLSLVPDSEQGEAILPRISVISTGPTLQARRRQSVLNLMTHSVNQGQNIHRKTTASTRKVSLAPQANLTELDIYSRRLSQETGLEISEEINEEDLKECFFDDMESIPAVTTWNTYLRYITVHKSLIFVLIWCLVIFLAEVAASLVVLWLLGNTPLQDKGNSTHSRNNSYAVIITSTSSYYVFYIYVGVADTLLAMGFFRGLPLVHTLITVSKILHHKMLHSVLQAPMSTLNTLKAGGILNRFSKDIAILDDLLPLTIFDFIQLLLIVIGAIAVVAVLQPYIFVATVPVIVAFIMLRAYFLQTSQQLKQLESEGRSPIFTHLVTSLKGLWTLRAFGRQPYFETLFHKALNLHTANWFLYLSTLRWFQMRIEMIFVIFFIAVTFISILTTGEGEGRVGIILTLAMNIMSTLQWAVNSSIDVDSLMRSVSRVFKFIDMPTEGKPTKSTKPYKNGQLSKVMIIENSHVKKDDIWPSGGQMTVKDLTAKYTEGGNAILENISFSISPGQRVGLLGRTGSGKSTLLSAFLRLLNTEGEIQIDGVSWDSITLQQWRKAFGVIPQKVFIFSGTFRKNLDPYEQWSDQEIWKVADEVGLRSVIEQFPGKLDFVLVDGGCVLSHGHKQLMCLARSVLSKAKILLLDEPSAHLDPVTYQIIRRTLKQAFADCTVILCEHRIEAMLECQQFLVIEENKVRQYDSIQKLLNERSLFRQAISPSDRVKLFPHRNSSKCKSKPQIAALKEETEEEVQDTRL

With `COc1ncc(CC(C)C)cc1CN[C@H]1[C@H](C(C)(C)C)[C@@H](C(=O)O)N(C(=O)C2CCCCC2)[C@H]1c1ccccc1` [Example I-76], the “Maximum % activity (with co-corrector)” value is listed as “+++ (≥350)” and the Emax is above 200%. For the same compound, under setting [1], the concentration giving a half-maximal response (EC50) was 1 to 10 µM. For the same compound, the 50% effective concentration (EC50) under setting [2] is below 1 µM.

`COc1ncc(Cc2cccc(C#N)c2)cc1CN[C@H]1[C@H](C(C)(C)C)[C@@H](C(=O)O)N(C(=O)C2CCCCC2)[C@H]1c1ccccc1` [Example I-77]: the “Maximum % activity (with co-corrector)” value is “+++ (≥350)” and the Emax lay in the range of 100 to 200%. Moreover, under setting [1], the EC50 lay within 1 to 10 µM. Besides, the EC50 under setting [2] is 1 to 10 µM.

Regarding `COc1ccc(-c2ccccc2)cc1CN[C@H]1[C@H](C(C)(C)C)[C@@H](C(=O)O)N(C(=O)[C@@H]2CCC[C@@H](OC)C2)[C@H]1c1ccccc1` [Example I-78], the “Maximum % activity (with co-corrector)” value is “+++ (≥350)” and the Emax was above 200%. Moreover, under setting [1], the EC50 fell in the range of 1 to 10 µM. Besides, under setting [2], the EC50 is below 1 µM.

For `COc1ncc(C(F)(F)F)cc1CN[C@H]1[C@H](C(C)(C)C)[C@@H](C(=O)O)N(C(=O)[C@@H]2CCC[C@@H](OC)C2)[C@H]1c1ccccc1` [Example I-79], the “Maximum % activity (with co-corrector)” value was “+++ (≥350)” and the Emax is above 200%. Moreover, under setting [1], the EC50 lay within 1 to 10 µM. Besides, under setting [2], the EC50 was in the range of 1 to 10 µM.

Regarding `CC(C)(C)c1ccc(O)c(CN[C@H]2[C@H](C(C)(C)C)[C@@H](C(=O)O)N(C(=O)C3CCCCC3)[C@H]2c2ccccc2)c1` [Example I-80], the “Maximum % activity (with co-corrector)” value is “+ (<150)” and the Emax is below 100%. The EC50 under setting [1] is above 10 µM. The EC50 under setting [2] was above 10 µM.

For `COc1ccc(C(C)(C)C)cc1CN[C@H]1[C@H](C(C)(C)C)[C@@H](C(=O)O)N(C(=O)OC(C)C)[C@H]1c1ccccc1` [Example I-81], the “Maximum % activity (with co-corrector)” value is “+++ (≥350)” and the Emax was above 200%. Besides, the half-maximal effective concentration (EC50) under setting [1] lay within 1 to 10 µM. Besides, the EC50 under setting [2] fell in the range of 1 to 10 µM.

Regarding `COc1ccc(C(C)(C)C)cc1N[C@H]1[C@H](C(C)(C)C)[C@@H](C(=O)O)N(C(=O)C2CCCCC2)[C@H]1c1ccccc1` [Example I-82], the “Maximum % activity (with co-corrector)” value is recorded as “+++ (≥350)” and the Emax was below 100%. The EC50 under setting [1] fell in the range of 1 to 10 µM. Besides, under setting [2], the EC50 was 1 to 10 µM.

As for `COc1ccc(C(F)(F)F)cc1CN[C@H]1[C@H](C(C)(C)C)[C@@H](C(=O)O)N(C(=O)CC2CCCCO2)[C@H]1c1ccccc1` (stereo partly shown) [Example I-84], the “Maximum % activity (with co-corrector)” value is “+++ (≥350)” and the Emax was 100 to 200%. Moreover, the EC50 under setting [1] was in the range of 1 to 10 µM. Further, the EC50 under setting [2] fell in the range of 1 to 10 µM.

Regarding `COc1ccc(CN(C)C)cc1CN[C@H]1[C@H](C(C)(C)C)[C@@H](C(=O)O)N(C(=O)C2CCCCC2)[C@H]1c1ccccc1` [Example I-85], the “Maximum % activity (with co-corrector)” value was “+ (<150)” and the Emax is below 100%. For the same compound, under setting [1], the EC50 was above 10 µM. Further, the EC50 under setting [2] was above 10 µM.

Regarding `COc1ccc(S(F)(F)(F)(F)F)cc1CN[C@H]1[C@H](C(C)(C)C)[C@@H](C(=O)O)N(C(=O)C2CCCCC2)[C@H]1c1ccccc1` [Example I-86], the “Maximum % activity (with co-corrector)” value is on record as “+++ (≥350)” and the Emax lay within 100 to 200%. Besides, under setting [1], the concentration for a half-maximal effect (EC50) is below 1 µM. Besides, the EC50 under setting [2] is below 1 µM.

For the compound `COc1ccc(-c2ccccc2)cc1CN[C@H]1[C@H](C(C)(C)OC)[C@@H](C(=O)O)N(C(=O)C2CCCCC2)[C@H]1c1ccccc1` [Example I-87], the “Maximum % activity (with co-corrector)” value was “+++ (≥350)” and the Emax is above 200%. Further, under setting [1], the 50% effective concentration (EC50) was below 1 µM. In addition, the EC50 under setting [2] is below 1 µM.

Regarding `COc1ccc(C(C)(C)C#N)cc1CN[C@H]1[C@H](C(C)(C)C)[C@@H](C(=O)O)N(C(=O)C2CCCCC2)[C@H]1c1ccccc1` [Example I-88], the “Maximum % activity (with co-corrector)” value is reported as “+++ (≥350)” and the Emax is 100 to 200%. Besides, the EC50 under setting [1] lay in the range of 1 to 10 µM. Moreover, the EC50 under setting [2] lay in the range of 1 to 10 µM.

For the compound `COc1cc(C(C)(C)O)ccc1CN[C@H]1[C@H](C(C)(C)C)[C@@H](C(=O)O)N(C(=O)C2CCCCC2)[C@H]1c1ccccc1` [Example I-89], the “Maximum % activity (with co-corrector)” value is “+ (<150)” and the Emax was below 100%. Also, under setting [1], the EC50 is above 10 µM. Further, under setting [2], the EC50 is above 10 µM.

Take `COc1ccc(C(C)(C)C)cc1CN[C@H]1[C@H](C(C)(C)C)[C@@H](C(=O)O)N(C(=O)c2cc(C#N)ccc2OC)[C@H]1c1ccccc1` [Example I-90]: the “Maximum % activity (with co-corrector)” value is “+++ (≥350)” and the Emax fell in the range of 100 to 200%. The EC50 under setting [1] was in the range of 1 to 10 µM. For the same compound, the EC50 under setting [2] lay in the range of 1 to 10 µM.

`COc1ccc(C(C)(C)C)cc1CN[C@H]1[C@H](C(C)(C)C)[C@@H](C(=O)O)N(C(=O)CN2Cc3ccccc3C2)[C@H]1c1ccccc1` [Example I-91]: the “Maximum % activity (with co-corrector)” value is listed as “+++ (≥350)” and the Emax is above 200%. The EC50 under setting [1] lay in the range of 1 to 10 µM. Under setting [2], the EC50 was in the range of 1 to 10 µM.

As to `COc1ccc(C(C)(C)C)cc1CN[C@H]1[C@H](C(C)(C)C)[C@@H](C(=O)O)N(C(=O)Cc2ccsc2)[C@H]1c1ccccc1` [Example I-92], the “Maximum % activity (with co-corrector)” value is “+++ (≥350)” and the Emax was above 200%. Under setting [1], the EC50 lay in the range of 1 to 10 µM. The EC50 under setting [2] is 1 to 10 µM.

Take `COc1ccc(C(C)(C)C)cc1CN[C@H]1[C@H](C(C)(C)C)[C@@H](C(=O)O)N(C(=O)c2ccc3cccc(F)c3n2)[C@H]1c1ccccc1` [Example I-93]: the “Maximum % activity (with co-corrector)” value is listed as “+++ (≥350)” and the Emax lay in the range of 100 to 200%. For the same compound, the EC50 under setting [1] lay in the range of 1 to 10 µM. Further, under setting [2], the EC50 is 1 to 10 µM.

`COc1ccc(CC(C)C)cc1CN[C@H]1[C@H](C(C)(C)C)[C@@H](C(=O)O)N(C(=O)C2CCCCC2)[C@H]1c1ccccc1` [Example I-94]: the “Maximum % activity (with co-corrector)” value is “+++ (≥350)” and the Emax is above 200%. Moreover, under setting [1], the EC50 is below 1 µM. Further, under setting [2], the EC50 was below 1 µM.

`COc1ccc(C(C)(C)C)cc1CN[C@H]1[C@H](C(C)(C)C)[C@@H](C(=O)O)N(C(=O)Cc2c[nH]cn2)[C@H]1c1ccccc1` [Example I-98]: the “Maximum % activity (with co-corrector)” value was “++ (≥150 and <350)”; the Emax is below 100%. Further, under setting [1], the EC50 lay in the range of 1 to 10 µM. The EC50 under setting [2] lay within 1 to 10 µM.

In the case of `COc1ccc(C(C)(C)C)cc1CN[C@H]1[C@H](C(C)(C)C)[C@@H](C(=O)O)N(C(=O)CC2(O)CCCC2)[C@H]1c1ccccc1` [Example I-99], the “Maximum % activity (with co-corrector)” value is given as “+++ (≥350)” and the Emax was above 200%. Further, under setting [1], the EC50 was 1 to 10 µM. Moreover, the EC50 under setting [2] fell in the range of 1 to 10 µM.

On to `COc1ccc(C(C)(C)C)cc1CN[C@H]1[C@H](C(C)(C)C)[C@@H](C(=O)O)N(C(=O)CN2CCCCCC2)[C@H]1c1ccccc1` [Example I-100], for which the “Maximum % activity (with co-corrector)” value is “+++ (≥350)” and the Emax is above 200%. Besides, under setting [1], the EC50 was in the range of 1 to 10 µM. Besides, the concentration for a half-maximal effect (EC50) under setting [2] lay in the range of 1 to 10 µM.

On to `CCn1ccc(=O)c(C(=O)N2[C@H](C(=O)O)[C@@H](C(C)(C)C)[C@H](NCc3cc(C(C)(C)C)ccc3OC)[C@@H]2c2ccccc2)c1` [Example I-101], for which the “Maximum % activity (with co-corrector)” value is recorded as “+ (<150)” and the Emax is below 100%. For the same compound, under setting [1], the EC50 was above 10 µM. Besides, the EC50 under setting [2] was above 10 µM.
